In US20120142645A1, “NEUROACTIVE STEROID COMPOSITIONS AND METHODS OF USE FOR LOWERING CHOLESTEROL” (priority 2009, published 2012):

Assays:
[1] = test system: patients with schizophrenia or schizoaffective disorder; assay: SANS negative symptoms; randomized placebo-controlled 8-week trial of adjunctive pregnenolone (100, 300, then 500 mg/day oral); assay type: in vivo, human; settings: for SANS Total, change: text prints it as positive mean change (improvement); for SANS Total, difference PG vs placebo: points; for SANS Affect subscale score / SANS Alogia subscale score / SANS Anhedonia/asociality subscale score / SANS Attention subscale score / SANS Avolition/apathy subscale score / SANS Total score: mean ± SD, n = 8
Procedure: Study Design and Subjects. Disclosed herein is a placebo-controlled, double-blind, parallel group, randomized trial of adjunctive pregnenolone for the treatment of cognitive and negative symptoms in patients with schizophrenia or schizoaffective disorder. […] Patients received a total of 6 study visits, which took place every two weeks. […] The trial was conducted at a single site, the Durham Veterans Affairs Medical Center in Durham, N.C. The protocol was approved by the local institutional review board and conducted under FDA Investigational New Drug (IND) #71,768. The ClinicalTrials.gov number for this study is NCT00560937.
Subjects were outpatients between the ages of 18 and 65 with schizophrenia or schizoaffective disorder diagnosed by DSM-IV/DSM-IV-TR criteria utilizing the Structured Clinical Interview (First et al., 1996) and medical records. All subjects were between the ages of 18-65 and provided informed consent. Duration of illness was greater than one year for all enrolled patients. To be eligible for the trial, patients had to be taking a second-generation antipsychotic (aripiprazole, olanzapine, quetiapine, or risperidone) for at least 8 weeks, with no changes in antipsychotic dosing in the preceding 4 weeks. Patients receiving first-generation antipsychotics were excluded. Concomitant psychiatric medications were permissible (antidepressants, mood stabilizers, anticholinergics, other), provided that patients were receiving stable doses of all of these medications in the 4 weeks preceding the trial and throughout the entire duration of the study. Any change in psychiatric medications at any point during the study rendered a patient ineligible to continue participation.
During the screening visit (Visit 1), patients received a physical exam, vital signs, and electrocardiogram (EKG), as well as baseline laboratory measures consisting of serum electrolytes, glucose, creatinine, blood urea nitrogen (chemistry 7 panel), liver function tests, complete blood count (CBC), urinalysis, urine toxicology test, thyroid stimulating hormone (TSH), and prolactin, and serum pregnancy test if female. These tests were also repeated at the completion of the study (Visit 6). In addition, patients received an interim EKG 4 weeks post-randomization, as well as a serum pregnancy test if female (Visit 4). Patients also received a chemistry 7 panel, CBC, and liver function tests at Visits 2, 3, 4, and 5 (i.e., at all study visits). Psychiatric symptoms were assessed at baseline using the Scale for the Assessment of Negative Symptoms (Andreasen, 1983), the Positive and Negative Symptom Scale (PANSS; Kay et al., 1987), the Calgary Depression Rating Scale (CDRS; Addington et al., 1990), the Clinical Global Impressions Improvement (CGI-I) and Severity (CGI-S) scales, the Barnes Akathisia Scale (BAS; Barnes, 1989), the Simpson Angus Scale for Extrapyramidal Symptoms (SAS; Simpson & Angus, 1970), the Quality of Life Scale (QOL; Heinrichs et al., 1984), and the Hillside Side Effects Scale. One research nurse with five years of experience in the conduction of schizophrenia clinical trials completed both psychiatric and cognitive assessments throughout the study, and was trained to one point of divergence on each PANSS item.

[2] = single oral dose 175 mg; over the course of 4-8 hours; Roberts, 1995; cited from earlier work
[3] = Difference in change from Week 0 to Week 8

CC(=O)[C@H]1CC[C@H]2[C@@H]3CC=C4C[C@@H](O)CC[C@]4(C)[C@H]3CC[C@]12C [PG, pregnenolone]
SANS Affect subscale, change ([1]; Change from Week 0 to Week 8): −4.3 ± 1.7 | SANS Alogia subscale, change ([1]; Change from Week 0 to Week 8): −1.9 ± 0.8 | SANS Anhedonia/asociality subscale, change ([1]; Change from Week 0 to Week 8): −2.4 ± 1.3 | SANS Attention subscale, change ([1]; Change from Week 0 to Week 8): −1.6 ± 0.4 | SANS Avolition/apathy subscale, change ([1]; Change from Week 0 to Week 8): −0.3 ± 0.3 | SANS Total, change ([1]; Change from Week 0 to Week 8): −10.4 ± 10.2 | SANS Total, change ([1]; Change from Week 0 to Week 8, listed as pregnenolone): 10.38±10.18 | SANS Affect subscale, difference PG vs placebo [1, 3]: −4.5 ± 1.9 | SANS Alogia subscale, difference PG vs placebo [1, 3]: −1.5 ± 0.8 | SANS Anhedonia/asociality subscale, difference PG vs placebo [1, 3]: −1.6 ± 1.3 | SANS Attention subscale, difference PG vs placebo [1, 3]: −0.5 ± 0.5 | SANS Avolition/apathy subscale, difference PG vs placebo [1, 3]: 0.1 ± 0.6 | SANS Total, difference PG vs placebo [1, 3]: −8.0 ± 3.7 | SANS Total, difference PG vs placebo ([1]; Difference in change from Week 0 to Week 8, listed as Pregnenolone): approximately 8 | SANS Affect subscale score ([1]; Week 0 (baseline)): 13.4 ± 5.0 | SANS Alogia subscale score ([1]; Week 0 (baseline)): 8.8 ± 3.6 | SANS Anhedonia/asociality subscale score ([1]; Week 0 (baseline)): 12.0 ± 4.5 | SANS Attention subscale score ([1]; Week 0 (baseline)): 5.6 ± 1.1 | SANS Avolition/apathy subscale score ([1]; Week 0 (baseline)): 8.3 ± 2.5 | SANS Total score ([1]; Week 0 (baseline)): 50.8 ± 12.2 | SANS Total score ([1]; Week 0 (baseline), listed as pregnenolone): 47.56±12.09 | SANS Affect subscale score ([1]; Week 4): 14.3 ± 3.2 | SANS Alogia subscale score ([1]; Week 4): 7.8 ± 3.2 | SANS Anhedonia/asociality subscale score ([1]; Week 4): 10.4 ± 4.1 | SANS Attention subscale score ([1]; Week 4): 5.3 ± 1.0 | SANS Avolition/apathy subscale score ([1]; Week 4): 8.1 ± 1.0 | SANS Total score ([1]; Week 4): 45.8 ± 8.8 | SANS Affect subscale score ([1]; Week 8): 11.9 ± 0.4 | SANS Alogia subscale score ([1]; Week 8): 6.9 ± 2.1 | SANS Anhedonia/asociality subscale score ([1]; Week 8): 9.6 ± 3.5 | SANS Attention subscale score ([1]; Week 8): 4.0 ± 0 | SANS Avolition/apathy subscale score ([1]; Week 8): 8.0 ± 0.5 | SANS Total score ([1]; Week 8): 40.4 ± 3.5 | Serum pregnenolone levels after single oral dose [2]: approximately doubles
